The test system of this assay is male albino rats (C.F.Y. strain). Briefly: Hypolipidaemic assay: serum total cholesterol and triglyceride in rats given compound in diet. It counts as in vivo. Conditions: 0.1% in diet for seven days; for % Cholesterol Lowering: serum total cholesterol compared with controls; for % Triglyceride Lowering: serum triglyceride compared with controls. On the procedure:
Groups of 8 male albino rats (C.F.Y. strain), weighing approximately 150 g., were given a powdered commercially available diet (oxoid) to which compounds were added at level of 0.1%. These diets were fed for seven days. The rats were then killed and their serum total cholesterol and triglyceride were measured by the Technicon Autoanalyser.

With `O=C(O)c1ccc(NCc2ccccc2)nc1`, the “% Cholesterol Lowering” value is listed as 34% and the “% Triglyceride Lowering” value was 30%.

`O=C(O)c1ccc(NCCCc2ccccc2)nc1`: the “% Cholesterol Lowering” value turned out to be 16% and the “% Triglyceride Lowering” value stood at 38%.
